In publication PMC9249674, “A small-molecule Skp1 inhibitor elicits cell death by p53-dependent mechanism” (iScience, 2022):

Experiments:
Skp1^WT = molecular target: T1, Skp1^WT (Homo sapiens, UniProt P63208); assay: LC-MS/MS analysis of in vitro binding; conditions: overnight incubation
T1 construct: recombinantly purify intact (Skp1^WT) and truncate (ΔSkp1^1−140; lacking H8-helix) forms of Skp1; His6; made in house; host or cells: Escherichia coli BL21 (DE3)

Skp1^F139A = molecular target: T2, Skp1^F139A (Homo sapiens, UniProt P63208, F139A); assay: LC-MS/MS analysis of in vitro binding; conditions: Skp1^F139A mutant, overnight incubation
T2 construct: His6; made in house; host or cells: Escherichia coli BL21 (DE3)

22RV1 = assay: Cell viability assay (Cell-Titer GLO); assay type: cell-based; conditions: Homo sapiens, Prostate cancer, 48 hrs, read-out: Anti-proliferative EC50
Method: (§1) For cell viability, cells were seeded in 384 opaque-walled plates with clear bottoms at 300–500 cells per well (optimum density for growth) in a total volume of 20 μL of media. The media was according to culture conditions of each individual cell line (mentioned above). After 12 hrs, compounds were added in a total volume of 5 μL of media (two-fold diluted) to each well with final concentrations from 5 nM to 30 μM. The measurements were conducted 48 hrs after seeding of the cells. Then, 25 μL of Cell-Titer GLO reagent (Promega) was added, and luminescence was measured on an EnSpire multimode plate reader (PerkinElmer), according to the manufacturer’s instructions. The estimated in vitro half-maximal inhibitory concentration (EC50) values were calculated using GraphPad Prism® v6.0 (San Diego, CA) software. The cell viability for A549 cells was also performed for 72- and 96-hrs by using the same experimental conditions as described above.

95D = assay: Cell viability assay (Cell-Titer GLO); assay type: cell-based; conditions: Lung cancer, 48 hrs, read-out: Anti-proliferative EC50
Method: as §1

A431 = assay: Cell viability assay (Cell-Titer GLO); assay type: cell-based; conditions: Homo sapiens, A-431; A431^c; Skin carcinoma; p53 null or mutant cancer cell lines; 48 hrs; read-out: Anti-proliferative EC50
Method: as §1

C4-2B = assay: Cell viability assay (Cell-Titer GLO); assay type: cell-based; conditions: Prostate cancer, 48 hrs, read-out: Anti-proliferative EC50
Method: as §1

Du145 = assay: Cell viability assay (Cell-Titer GLO); assay type: cell-based; conditions: Homo sapiens, DU-145, Prostate cancer, 48 hrs, read-out: Anti-proliferative EC50
Method: as §1

H1299 = assay: Cell viability assay (Cell-Titer GLO); assay type: cell-based; conditions: Homo sapiens, NCI-H1299; H1299^b; Lung cancer; p53 null or mutant cancer cell lines; 48 hrs; read-out: Anti-proliferative EC50
Method: as §1

H1650 = assay: Cell viability assay (Cell-Titer GLO); assay type: cell-based; conditions: Homo sapiens, NCI-H1650, Lung cancer, 48 hrs, read-out: Anti-proliferative EC50
Method: as §1

H358 = assay: Cell viability assay (Cell-Titer GLO); assay type: cell-based; conditions: Homo sapiens, NCI-H358; H358^b; Lung cancer; p53 null or mutant cancer cell lines; 48 hrs; read-out: Anti-proliferative EC50
Method: as §1

H460 = assay: Cell viability assay (Cell-Titer GLO); assay type: cell-based; conditions: Homo sapiens, NCI-H460, Lung cancer, 48 hrs, read-out: Anti-proliferative EC50
Method: as §1

HCT116 = assay: Cell viability assay (Cell-Titer GLO); assay type: cell-based; conditions: Homo sapiens, HCT-116, Colon carcinoma, 48 hrs, read-out: Anti-proliferative EC50
Method: as §1

Hela = assay: Cell viability assay (Cell-Titer GLO); assay type: cell-based; conditions: Homo sapiens, Cervical cancer, 48 hrs, read-out: Anti-proliferative EC50
Method: as §1

Hs578T = assay: Cell viability assay (Cell-Titer GLO); assay type: cell-based; conditions: Homo sapiens, Hs-578T, Breast cancer, 48 hrs, read-out: Anti-proliferative EC50
Method: as §1

Huh-7 = assay: Cell viability assay (Cell-Titer GLO); assay type: cell-based; conditions: Homo sapiens, Liver cancer, 48 hrs, read-out: Anti-proliferative EC50
Method: as §1

K562 = assay: Cell viability assay (Cell-Titer GLO); assay type: cell-based; conditions: Homo sapiens, Leukemia, 48 hrs, read-out: Anti-proliferative EC50
Method: as §1

LLC = assay: Cell viability assay (Cell-Titer GLO); assay type: cell-based; conditions: Lewis lung carcinoma; LLC^a; Lung cancer; 48 hrs; read-out: Anti-proliferative EC50
Method: as §1

LNCaP = assay: Cell viability assay (Cell-Titer GLO); assay type: cell-based; conditions: Homo sapiens, Prostate cancer, 48 hrs, read-out: Anti-proliferative EC50
Method: as §1

MDA-MB-231 = assay: Cell viability assay (Cell-Titer GLO); assay type: cell-based; conditions: Homo sapiens, Breast cancer, 48 hrs, read-out: Anti-proliferative EC50
Method: as §1

MGC-803 = assay: Cell viability assay (Cell-Titer GLO); assay type: cell-based; conditions: Homo sapiens; MGC-803^c; Gastric cancer; p53 null or mutant cancer cell lines; 48 hrs; read-out: Anti-proliferative EC50
Method: as §1

MKN-7 = assay: Cell viability assay (Cell-Titer GLO); assay type: cell-based; conditions: Homo sapiens; MKN-7^c; Gastric cancer; p53 null or mutant cancer cell lines; 48 hrs; read-out: Anti-proliferative EC50
Method: as §1

NCI-N87 = assay: Cell viability assay (Cell-Titer GLO); assay type: cell-based; conditions: Homo sapiens; NCI-N87^c; Gastric cancer; p53 null or mutant cancer cell lines; 48 hrs; read-out: Anti-proliferative EC50
Method: as §1

βTC6 = assay: Cell viability assay (Cell-Titer GLO); assay type: cell-based; conditions: βTC6^a; Pancreatic insulinoma; 48 hrs; read-out: Anti-proliferative EC50
Method: as §1

[1] = test system: panel of cell lines derived from hematologic and solid tumors; assay: Cell viability, panel of cell lines; assay type: cell-based; conditions: all the lines tested with complete cell killing; read-out: EC50 values across the panel
Method: as §1

H358 (p53 null) cells = assay: Flow cytometric analysis of apoptosis (annexin V/PI); assay type: cell-based; conditions: 10 μM dose

T2 sequence (P63208 whole entry F139A): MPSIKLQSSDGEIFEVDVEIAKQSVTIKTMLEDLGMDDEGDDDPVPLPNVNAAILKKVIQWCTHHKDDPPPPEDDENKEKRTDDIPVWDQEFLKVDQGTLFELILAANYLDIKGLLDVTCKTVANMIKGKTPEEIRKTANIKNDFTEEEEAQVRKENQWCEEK
T1 sequence (P63208 whole entry, the tested form may be a part): as the sequence (P63208 whole entry F139A) above, with A139F counted along it

`Nc1ccc(-c2nc3ccccc3c3[nH]c4ccccc4c23)cc1` [Z0933M] was tested. Which “binding by LC-MS/MS” value (Skp1^WT) did it give?
The value was “robust binding”.

What about the “binding by LC-MS/MS” value (Skp1^F139A) of the same compound?
Its value is “markedly reduced”.

And the EC50 (22RV1)?
Its EC50 is 1.11 ± 0.1 µM.

And the EC50 (95D)?
Its EC50 is 3.14 ± 0.26 µM.

And the EC50 (A431)?
Its EC50 is over 30 µM.

And the EC50 (C4-2B)?
Its EC50 is 1.9 ± 0.07 µM.

What about the EC50 (Du145) of the same compound?
Its EC50 is 0.25 ± 0.02 µM.

What about the EC50 (H1299) of the same compound?
The EC50 was 11.5 ± 0.21 µM.

And the EC50 (H1650)?
The EC50 was 2.35 ± 0.45 µM.

What about the EC50 (H358) of the same compound?
The EC50 was 14.9 ± 0.42 µM.

And the EC50 (H460)?
Its EC50 is 2.69 ± 0.07 µM.

And the EC50 (HCT116)?
Its EC50 is 2.82 ± 0.33 µM.

And the EC50 (Hela)?
Its EC50 is 0.36 ± 0.06 µM.

What about the EC50 (Hs578T) of the same compound?
The EC50 was 2.49 ± 0.07 µM.

What about the EC50 (Huh-7) of the same compound?
Its EC50 is 3.6 ± 0.81 µM.

And the EC50 (K562)?
The EC50 was 0.735 ± 0.03 µM.

And the EC50 (LLC)?
Its EC50 is 1.85 ± 0.35 µM.

What about the EC50 (LNCaP) of the same compound?
Its EC50 is 0.88 ± 0.03 µM.

And the EC50 (MDA-MB-231)?
The EC50 was 2.9 ± 0.63 µM.

And the EC50 (MGC-803)?
Its EC50 is over 30 µM.

What about the EC50 (MKN-7) of the same compound?
Its EC50 is over 30 µM.

And the EC50 (NCI-N87)?
The EC50 was over 30 µM.

And the EC50 (βTC6)?
Its EC50 is 0.37 ± 0.007 µM.

What about the EC50 [1] of the same compound?
The EC50 was 0.25 to 4 µM.

And the induction of apoptosis (H358 (p53 null) cells)?
Its induction of apoptosis is “could not induce apoptosis”.
